Patent US20230085307A1, “PYRIDAZINONE COMPOUND AND HERBICIDE” (NISSAN CHEMICAL CORPORATION, priority 2019, published 2023)

Key:
[1] = test system: persian speedwell; assay: Test Example 5: herbicidal effect by foliage application, plastic box (Table 20, symbol R); format: in vivo, Persian speedwell (Veronica persica); details: foliage application, 320 g/ha, three weeks after application
How it was run: (§1)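 Sow seeds spot-wise in sterilized diluvial soil; cover with ~1.5 cm soil. Grow 14 days in greenhouse, 25° C. to 30° C. Spray foliage with emulsion diluted to predetermined amount. Rate effect after 3 weeks.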

[2] = test system: Italian ryegrass; assay: Test Example 4: herbicidal effect by soil treatment (Table 19, symbol K); format: in vivo, Italian ryegrass (Lolium multiflorum); details: amount of applied herbicide 320 g/ha
How it was run: (§2)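 Applied as a water-diluted emulsion, the compound was sprayed onto soil covering newly sown seeds. Evaluation came three weeks after application, in a greenhouse held at 25° C. to 30° C.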

[3] = test system: wild oat; assay: Test Example 5: herbicidal effect by foliage application, plastic box (Table 20, symbol I); format: in vivo, wild oat (Avena fatua); details: foliage application, 320 g/ha, three weeks after application
How it was run: as §1

[4] = test system: redroot pigweed; assay: Test Example 4: herbicidal effect by soil treatment (Table 19, symbol N); format: in vivo, redroot pigweed (Amaranthus retroflexus); details: amount of applied herbicide 320 g/ha
How it was run: as §2

[5] = test system: persian speedwell; assay: Test Example 4: herbicidal effect by soil treatment (Table 19, symbol R); format: in vivo, Persian speedwell (Veronica persica); details: amount of applied herbicide 320 g/ha
How it was run: as §2

[6] = test system: windgrass; assay: Test Example 4: herbicidal effect by soil treatment (Table 19, symbol L); format: in vivo, windgrass (Apera spica-venti); details: amount of applied herbicide 320 g/ha
How it was run: as §2

[7] = test system: redroot pigweed; assay: Test Example 5: herbicidal effect by foliage application, plastic box (Table 20, symbol N); format: in vivo, redroot pigweed (Amaranthus retroflexus); details: foliage application, 320 g/ha, three weeks after application
How it was run: as §1

[8] = test system: Italian ryegrass; assay: Test Example 5: herbicidal effect by foliage application, plastic box (Table 20, symbol K); format: in vivo, Italian ryegrass (Lolium multiflorum); details: foliage application, 320 g/ha, three weeks after application
How it was run: as §1

[9] = test system: velvetleaf; assay: Test Example 5: herbicidal effect by foliage application, plastic box (Table 20, symbol M); format: in vivo, velvetleaf (Abutilon theophrasti); details: foliage application, 320 g/ha, three weeks after application
How it was run: as §1

[10] = test system: late watergrass; assay: Test Example 1: herbicidal activity, application before weed generation under submerged conditions (Table 16, symbol A); format: in vivo, late watergrass (Echinochloa oryzicola); details: 320 g/ha applied herbicide
How it was run: (§3)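 Emulsion formulation, water-diluted to set dose, was put onto the flooded surface (4 cm depth, alluvial soil) the same day weeds were sown and 2.5-leaf rice transplanted. After 3 weeks at 25-30 °C under glass, each species was rated 0 (≤5% kill) to 5 (≥90% kill).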

[11] = test system: chickweed; assay: Test Example 5: herbicidal effect by foliage application, plastic box (Table 20, symbol P); format: in vivo, common chickweed (Stellaria media); details: foliage application, 320 g/ha, three weeks after application
How it was run: as §1

[12] = test system: lambsquarters; assay: Test Example 5: herbicidal effect by foliage application, plastic box (Table 20, symbol O); format: in vivo, lambsquarters (Chenopodium album); details: foliage application, 320 g/ha, three weeks after application
How it was run: as §1

[13] = test system: barnyard grass; assay: Test Example 5: herbicidal effect by foliage application, plastic box (Table 20, symbol H); format: in vivo, barnyard grass (Echinochloa crus-galli); details: foliage application, 320 g/ha, three weeks after application
How it was run: as §1

[14] = test system: barnyard grass; assay: Test Example 4: herbicidal effect by soil treatment (Table 19, symbol H); format: in vivo, barnyard grass (Echinochloa crus-galli); details: amount of applied herbicide 320 g/ha
How it was run: as §2

[15] = test system: lambsquarters; assay: Test Example 4: herbicidal effect by soil treatment (Table 19, symbol O); format: in vivo, lambsquarters (Chenopodium album); details: amount of applied herbicide 320 g/ha
How it was run: as §2

[16] = test system: chickweed; assay: Test Example 4: herbicidal effect by soil treatment (Table 19, symbol P); format: in vivo, common chickweed (Stellaria media); details: amount of applied herbicide 320 g/ha
How it was run: as §2

[17] = test system: rice flat sedge; assay: Test Example 3: herbicidal effect by foliage application, Wagner pot (Table 18, symbol E); format: in vivo, rice flat sedge (Cyperus iria); details: 320 g/ha
How it was run: (§4)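 Plants were sown in alluvial soil held under 0.1–0.5 cm standing water and grown 14 days in a greenhouse at 25–30 °C. An emulsifiable formulation, water-diluted to the set dose, was then sprayed onto the foliage, and effects were scored three weeks later using previously defined criteria.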

[18] = test system: windgrass; assay: Test Example 5: herbicidal effect by foliage application, plastic box (Table 20, symbol L); format: in vivo, windgrass (Apera spica-venti); details: foliage application, 320 g/ha, three weeks after application
How it was run: as §1

[19] = test system: velvetleaf; assay: Test Example 4: herbicidal effect by soil treatment (Table 19, symbol M); format: in vivo, velvetleaf (Abutilon theophrasti); details: amount of applied herbicide 320 g/ha
How it was run: as §2

[20] = test system: Japanese bulrush; assay: Test Example 1: herbicidal activity, application before weed generation under submerged conditions (Table 16, symbol B); format: in vivo, Japanese bulrush (Schoenoplectus juncoides); details: 320 g/ha applied herbicide
How it was run: as §3

[21] = test system: green foxtail; assay: Test Example 4: herbicidal effect by soil treatment (Table 19, symbol G); format: in vivo, green foxtail (Setaria viridis); details: amount of applied herbicide 320 g/ha
How it was run: as §2

[22] = test system: false cleavers; assay: Test Example 4: herbicidal effect by soil treatment (Table 19, symbol Q); format: in vivo, false cleavers (Galium spurium); details: amount of applied herbicide 320 g/ha
How it was run: as §2

[23] = test system: southern crabgrass; assay: Test Example 5: herbicidal effect by foliage application, plastic box (Table 20, symbol F); format: in vivo, southern crabgrass (Digitaria ciliaris); details: foliage application, 320 g/ha, three weeks after application
How it was run: as §1

[24] = test system: blackgrass; assay: Test Example 5: herbicidal effect by foliage application, plastic box (Table 20, symbol J); format: in vivo, blackgrass (Alopecurus myosuroides); details: foliage application, 320 g/ha, three weeks after application
How it was run: as §1

[25] = test system: Chinese sprangletop; assay: Test Example 3: herbicidal effect by foliage application, Wagner pot (Table 18, symbol D); format: in vivo, chinese sprangletop (Leptochloa chinensis); details: 320 g/ha
How it was run: as §4

[26] = test system: wild oat; assay: Test Example 4: herbicidal effect by soil treatment (Table 19, symbol I); format: in vivo, wild oat (Avena fatua); details: amount of applied herbicide 320 g/ha
How it was run: as §2

[27] = test system: false cleavers; assay: Test Example 5: herbicidal effect by foliage application, plastic box (Table 20, symbol Q); format: in vivo, false cleavers (Galium spurium); details: foliage application, 320 g/ha, three weeks after application
How it was run: as §1

[28] = test system: blackgrass; assay: Test Example 4: herbicidal effect by soil treatment (Table 19, symbol J); format: in vivo, blackgrass (Alopecurus myosuroides); details: amount of applied herbicide 320 g/ha
How it was run: as §2

[29] = test system: southern crabgrass; assay: Test Example 4: herbicidal effect by soil treatment (Table 19, symbol F); format: in vivo, southern crabgrass (Digitaria ciliaris); details: amount of applied herbicide 320 g/ha
How it was run: as §2

[30] = test system: oval-leafed pondweed; assay: Test Example 1: herbicidal activity, application before weed generation under submerged conditions (Table 16, symbol C); format: in vivo, oval-leafed pondweed (Monochoria vaginalis); details: 320 g/ha applied herbicide
How it was run: as §3

[31] = test system: green foxtail; assay: Test Example 5: herbicidal effect by foliage application, plastic box (Table 20, symbol G); format: in vivo, green foxtail (Setaria viridis); details: foliage application, 320 g/ha, three weeks after application
How it was run: as §1

[32] = test system: barnyard grass; assay: Test Example 3: herbicidal effect by foliage application, Wagner pot (Table 18, symbol H); format: in vivo, barnyard grass (Echinochloa crus-galli); details: 320 g/ha
How it was run: as §4

COc1ccc(-c2sc3ccccc3c2-c2c(O)c(C)nn(C)c2=O)cc1F [1-049]
herbicidal effect grade, R: persian speedwell [1]: 5 (Herbicidal rate of 90% or more (almost completely withered)) | herbicidal effect rating, K: Italian ryegrass [2]: 0 (Herbicidal rate of 5% or less (almost no effect)) | herbicidal effect grade, I: wild oat [3]: 1 (Herbicidal rate of 5% or more and less than 20%) | herbicidal effect rating, N: redroot pigweed [4]: 4 (Herbicidal rate of 70% or more and less than 90%) | herbicidal effect rating, R: persian speedwell [5]: 4 (Herbicidal rate of 70% or more and less than 90%) | herbicidal effect rating, L: windgrass [6]: 0 (Herbicidal rate of 5% or less (almost no effect)) | herbicidal effect grade, N: redroot pigweed [7]: 3 (Herbicidal rate of 40% or more and less than 70%) | herbicidal effect grade, K: Italian ryegrass [8]: 4 (Herbicidal rate of 70% or more and less than 90%) | herbicidal effect grade, M: velvetleaf [9]: 5 (Herbicidal rate of 90% or more (almost completely withered)) | Herbicidal effect on A: late watergrass (grade 0-5) [10]: 4 (Herbicidal rate of 70% or more and less than 90%) | herbicidal effect grade, P: chickweed [11]: 5 (Herbicidal rate of 90% or more (almost completely withered)) | herbicidal effect grade, O: lambsquarters [12]: 3 (Herbicidal rate of 40% or more and less than 70%) | herbicidal effect grade, H: barnyard grass [13]: 4 (Herbicidal rate of 70% or more and less than 90%) | herbicidal effect rating, H: barnyard grass [14]: 3 (Herbicidal rate of 40% or more and less than 70%) | herbicidal effect rating, O: lambsquarters [15]: 3 (Herbicidal rate of 40% or more and less than 70%) | herbicidal effect rating, P: chickweed [16]: 3 (Herbicidal rate of 40% or more and less than 70%) | herbicidal effect on E (rice flat sedge), rating 0-5 [17]: 5 (Herbicidal rate of 90% or more (almost completely withered)) | herbicidal effect grade, L: windgrass [18]: 0 (Herbicidal rate of 5% or less (almost no effect)) | herbicidal effect rating, M: velvetleaf [19]: 0 (Herbicidal rate of 5% or less (almost no effect)) | Herbicidal effect on B: Japanese bulrush (grade 0-5) [20]: 1 (Herbicidal rate of 5% or more and less than 20%) | herbicidal effect rating, G: green foxtail [21]: 3 (Herbicidal rate of 40% or more and less than 70%) | herbicidal effect rating, Q: false cleavers [22]: 0 (Herbicidal rate of 5% or less (almost no effect)) | herbicidal effect grade, F: southern crabgrass [23]: 4 (Herbicidal rate of 70% or more and less than 90%) | herbicidal effect grade, J: blackgrass [24]: 0 (Herbicidal rate of 5% or less (almost no effect)) | herbicidal effect on D (Chinese sprangletop), rating 0-5 [25]: 3 (Herbicidal rate of 40% or more and less than 70%) | herbicidal effect rating, I: wild oat [26]: 0 (Herbicidal rate of 5% or less (almost no effect)) | herbicidal effect grade, Q: false cleavers [27]: 3 (Herbicidal rate of 40% or more and less than 70%) | herbicidal effect rating, J: blackgrass [28]: 0 (Herbicidal rate of 5% or less (almost no effect)) | herbicidal effect rating, F: southern crabgrass [29]: 2 (Herbicidal rate of 20% or more and less than 40%) | Herbicidal effect on C: oval-leafed pondweed (grade 0-5) [30]: 0 (Herbicidal rate of 5% or less (almost no effect)) | herbicidal effect grade, G: green foxtail [31]: 4 (Herbicidal rate of 70% or more and less than 90%) | herbicidal effect on H (barnyard grass), rating 0-5 [32]: 5 (Herbicidal rate of 90% or more (almost completely withered))
